The values below come from patent US10745719B2, “Enzymes and methods for dealkylation of substrates” (Alliance for Sustainable Energy, LLC, priority 2015, dated 2020).

One data set concerns P. putida KT2440/pCJ021. As to the kind of experiment: Growth on and metabolism of aromatic substrate by P. putida KT2440/pCJ021 (cytochrome P450 O-dealkylase and reductase) in M9 minimal medium. Format: cell-based, Pseudomonas putida. From the text: (§1) The genes encoding the cytochrome P450 protein and the co-transcribed reductase were amplified from Amycolatopsis sp. ATCC 39116 DNA using primers oCJ169 and oCJ170 (see Table 2) and the product assembled using Gibson Assembly Master Mix (New England BioLabs) into the broad host-range vector pBTL-2, which was amplified using primers oCJ160 and oCJ161, resulting in pCJ021. pBTL-2 (a gift from Ryan Gill; Addgene plasmid #22806) is a broad host-range vector that drives expression of inserted genes using the lac promoter, which is constitutively expressed in Pseudomonas putida KT2440. The cytochrome P450 gene alone was also amplified using oCJ169 and oCJ206 and assembled it into the same vector (resulting in pCJ024). pCJ021 was then transformed into P. putida KT2440 to generate P. putida KT2440/pCJ021.
HPLC analysis was performed by injecting 6 μL of 0.2 μm filtered culture supernatant onto an Agilent 1100 series system equipped with a Phenomenex Rezex RFQ-Fast Acid H+ (8%) column and a cation H+ guard cartridge (Bio-Rad Laboratories) at 85° C. run using a mobile phase of 0.01 N sulfuric acid at a flow rate of 1.0 mL/min and a diode array detector to measure absorbance at 210 nm. Analytes were identified by comparing retention times and spectral profiles with pure standards. HPLC chromatograms show milli-absorbance units (mAU) on the Y axis and retention time (minutes) on the X axis.
(§2) P. putida KT2440 can readily metabolize catechol for growth, so a functional enzyme with O-dealkylase activity would convert guaiacol or guaethol to catechol and enable this organism to metabolize guaiacol or guaethol for growth, which it is not natively capable of.
HPLC analyses show the disappearance of guaiacol in a culture of P. putida KT2440/pCJ021 grown on M9 minimal medium containing guaiacol and the lack of guaiacol catabolism by native P. putida KT2440 (FIG. 6).

Data set [1] deals with P. putida KT2440 transformed with pCJ024. As to the kind of experiment: Metabolism of guaiacol by P. putida KT2440 transformed with pCJ024 (cytochrome P450 gene alone). Format: cell-based, Pseudomonas putida. Conditions: M9 minimal medium, 5 mM guaiacol.
Source text: as §1, §2

Setting [2] is: 5 mM guaiacol as sole source of carbon and energy.

Turning to `CCOc1ccccc1O` [guaethol, 2-ethoxyphenol], the metabolism of substrate entry in the data set with P. putida KT2440/pCJ021 (5 mM guaethol as sole source of carbon and energy, 72 hours) is on record as “able to metabolize the guaethol”. Moreover, the OD600 reached in the data set with P. putida KT2440/pCJ021 (5 mM guaethol, growth on the catechol produced) is on record as 7.
For the molecule `COc1ccccc1O` [guaiacol, 2-methoxyphenol], in the data set on P. putida KT2440/pCJ021 (setting [2]), the OD600 reached entry is on record as “over 0.5”. The results for the metabolism of substrate result (in the data set on P. putida KT2440/pCJ021 (setting [2]); in data set [1]) were “metabolizing the guaiacol completely” and “neither of these strains was able to metabolize guaiacol”, respectively.
